# Numbered stars: 1 amine (or outer) side, 2 acyl side, 3 side chain; on linkers, the order of the positions; unused ones are H or OH. Square brackets hold non-standard residues; d marks the D form. Peptide text beside a SMILES is read from it. * marks the point of attachment. ξ: configuration not given here. X2 = N[C@@H](CO)C(=O)CN([C@@H](Cc1ccccc1)C(=O)[*:2])[*:1]; X3 = C[C@@H](c1ccccc1)[C@H](N[*:1])C(=O)[*:2]; NMe2Phe = CN(C)[C@@H](Cc1ccccc1)C(=O)*; NEtPhe = CCN[C@@H](Cc1ccccc1)C(=O)O; X1 = CCN(CC)[C@@H](Cc1ccccc1)C(=O)*; NMeF = CN[C@@H](Cc1ccccc1)C(=O)O; Tic = O=C(O)[C@@H]1Cc2ccccc2CN1; Aib = CC(C)(N)C(=O)O; Propionyl = CCC(=O)*; Butyryl = CCCC(=O)*; ξLac = CC(O)C(=O)O; For = O=C*
# Species on record: Homo sapiens
# Test: Agonist activity in human platelet aggregation
# Type: functional
# Conditions: read-out: ED50 (the source's name)
row,Compound,EC50 [µM]
1,CC(C)C[C@H](NC(=O)[C@H]1CCCN1C(=O)[C@@H](NC(=O)[C@@H](N)CO)[C@H](C)c1ccccc1)C(=O)N[C@@H](CCCN=C(N)N)C(=O)N[C@@H](CC(N)=O)C(=O)O,1.6
2,CC(C)C[C@H](NC(=O)[C@H](CC(C)C)NC(=O)[C@@H](NC(=O)[C@@H](N)CO)[C@H](C)c1ccccc1)C(=O)N[C@@H](CCCN=C(N)N)C(=O)N[C@@H](CC(N)=O)C(=O)O,2
3,CC(C)C[C@H](NCC(=O)[C@H](Cc1ccccc1)NC(=O)[C@@H](N)CO)C(=O)N[C@@H](CC(C)C)C(=O)N[C@@H](CCCN=C(N)N)C(=O)N[C@@H](CC(N)=O)C(=O)O,> 1000
4,CC(C)C[C@H](NC(=O)[C@H]1CCCN1C(=O)[C@@H](NC(=O)[C@@H](N)CO)[C@@H](C)c1ccccc1)C(=O)N[C@@H](CCCN=C(N)N)C(=O)N[C@@H](CC(N)=O)C(=O)O,216
5,CC(C)C[C@H](NC(=O)[C@H](CC(C)C)NC(=O)[C@H](Cc1ccccc1)N(C)C(=O)[C@@H](N)CO)C(=O)N[C@@H](CCCN=C(N)N)C(=O)N[C@@H](CC(N)=O)C(=O)O,> 1000
6,CC(C)C[C@H](NC(=O)[C@H](CC(C)C)NC(=O)[C@](C)(Cc1ccccc1)NC(=O)[C@@H](N)CO)C(=O)N[C@@H](CCCN=C(N)N)C(=O)N[C@@H](CC(N)=O)C(=O)O,169
7,CC(C)C[C@H](NC(=O)[C@H]1CCCN1C(=O)[C@H](Cc1ccccc1)NC(=O)[C@@H](N)CO)C(=O)N[C@@H](CCCN=C(N)N)C(=O)N[C@@H](CC(N)=O)C(=O)O,5.3
8,CC(C)C[C@H](NC(=O)[C@H](CC(C)C)N(C)C(=O)[C@H](Cc1ccccc1)NC(=O)[C@@H](N)CO)C(=O)N[C@@H](CCCN=C(N)N)C(=O)N[C@@H](CC(N)=O)C(=O)O,70
9,CC(C)C[C@H](NC(=O)[C@H](CC(C)C)NC(=O)[C@H](Cc1ccccc1)NC(=O)[C@@H](N)CO)C(=O)N[C@@H](CCCN=C(N)N)C(=O)N[C@@H](CC(N)=O)C(=O)O,0.92
10,CCCC(=O)N[C@@H](Cc1ccccc1)C(=O)N[C@@H](CC(C)C)C(=O)N[C@@H](CC(C)C)C(=O)N[C@@H](CCCN=C(N)N)C(=O)N[C@@H](CC(N)=O)C(=O)O (Butyryl-FLLRN-OH),75.1
11,CC(C)C[C@H](NC(=O)[C@H](Cc1ccccc1)NC=O)C(=O)N[C@@H](CC(C)C)C(=O)N[C@@H](CCCN=C(N)N)C(=O)N[C@@H](CC(N)=O)C(=O)O (For-FLLRN-OH),62.4
12,CC(C)C[C@H](NC(=O)C(C)(C)NC(=O)[C@H](Cc1ccccc1)NC(=O)[C@@H](N)CO)C(=O)N[C@@H](CCCN=C(N)N)C(=O)N[C@@H](CC(N)=O)C(=O)O (H-SF[Aib]LRN-OH),> 1000
13,CC(C)C[C@H](NC(=O)[C@@H]1Cc2ccccc2CN1C(=O)[C@H](Cc1ccccc1)NC(=O)[C@@H](N)CO)C(=O)N[C@@H](CCCN=C(N)N)C(=O)N[C@@H](CC(N)=O)C(=O)O (H-SF[Tic]LRN-OH),4.6
14,CC(C)C[C@H](NC(=O)[C@H](CC(C)C)NC(=O)[C@@H]1Cc2ccccc2CN1C(=O)[C@@H](N)CO)C(=O)N[C@@H](CCCN=C(N)N)C(=O)N[C@@H](CC(N)=O)C(=O)O (H-S[Tic]LLRN-OH),> 1000
15,CC(C)C[C@H](NC(=O)[C@H](CC(C)C)NC(=O)[C@@H](NC(=O)[C@@H](N)CO)[C@@H](C)c1ccccc1)C(=O)N[C@@H](CCCN=C(N)N)C(=O)N[C@@H](CC(N)=O)C(=O)O (H-S[X3]LLRN-OH),27
16,CCN[C@@H](Cc1ccccc1)C(=O)N[C@@H](CC(C)C)C(=O)N[C@@H](CC(C)C)C(=O)N[C@@H](CCCN=C(N)N)C(=O)N[C@@H](CC(N)=O)C(=O)O (H-[NEtPhe]LLRN-OH),> 1000
17,CN[C@@H](Cc1ccccc1)C(=O)N[C@@H](CC(C)C)C(=O)N[C@@H](CC(C)C)C(=O)N[C@@H](CCCN=C(N)N)C(=O)N[C@@H](CC(N)=O)C(=O)O (H-[NMeF]LLRN-OH),> 1000
18,CC(C)C[C@H](NC(=O)[C@H](Cc1ccccc1)NCC(=O)[C@@H](N)CO)C(=O)N[C@@H](CC(C)C)C(=O)N[C@@H](CCCN=C(N)N)C(=O)N[C@@H](CC(N)=O)C(=O)O (H-[X2]LLRN-OH),382
19,CNC(=O)C[C@H](NC(=O)[C@H](CCCN=C(N)N)NC(=O)[C@H](CC(C)C)NC(=O)[C@H](CC(C)C)NC(=O)[C@H](Cc1ccccc1)NC(=O)C(C)O)C(=O)O (some centres undefined) (H-[ξLac]FLLRD(NHMe)-OH),49
20,CC(C)C[C@H](NC(=O)[C@H](CC(C)C)NC(=O)[C@H](Cc1ccccc1)N(C)C)C(=O)N[C@@H](CCCN=C(N)N)C(=O)N[C@@H](CC(N)=O)C(=O)O (NMe2Phe-LLRN-OH),> 1000
21,CCC(=O)N[C@@H](Cc1ccccc1)C(=O)N[C@@H](CC(C)C)C(=O)N[C@@H](CC(C)C)C(=O)N[C@@H](CCCN=C(N)N)C(=O)N[C@@H](CC(N)=O)C(=O)O (Propionyl-FLLRN-OH),35
22,CCN(CC)[C@@H](Cc1ccccc1)C(=O)N[C@@H](CC(C)C)C(=O)N[C@@H](CC(C)C)C(=O)N[C@@H](CCCN=C(N)N)C(=O)N[C@@H](CC(N)=O)C(=O)O (X1-LLRN-OH),> 1000
23,Ac-FLLRN-OH,84.5
24,H-SFGLRN-OH,14.8

# Reference: ChEMBL document CHEMBL1151541, “Modified thrombin receptor-agonist peptide ligands. Synthesis and conformational analysis of analogs of the N-terminal tripeptide region” (1995)
